# Tests used:
# Candida albicans = assay: Antimycotic in vitro activity, serial dilution test (MIC), Candida albicans; format: cell-based; details: Meat extract-dextrose broth, 28° to 37° C., 24 to 48 hours
# Method: (§1) The in vitro tests were carried out in a serial dilution test using inocula of microorganisms of on average 5×10^3 to 10^4 microorganisms/ml of substrate. The nutrient medium used was (b) for yeasts: Meat extract-dextrose broth. The incubation temperature was 28° to 37° C., and the incubation period was 24 to 48 hours with yeasts and 96 hours with Dermatophytes and hyphomycetes.
# Aspergillus fumigatus = assay: Antimycotic in vitro activity, serial dilution test (MIC), Aspergillus fumigatus; format: cell-based; details: Kimmig's test medium, 28° to 37° C., 96 hours
# Method: (§2) The in vitro tests were carried out in a serial dilution test using inocula of microorganisms of on average 5×10^3 to 10^4 microorganisms/ml of substrate. The nutrient medium used was
# (§3) (a) for dermatophytes and Hyphomycetes: Kimmig's test medium
# (§4) The incubation temperature was 28° to 37° C., and the incubation period was 24 to 48 hours with yeasts and 96 hours with Dermatophytes and hyphomycetes.
# Torulopsis glabrata = assay: Antimycotic in vitro activity, serial dilution test (MIC), Torulopsis glabrata; format: cell-based; details: Nakaseomyces glabratus; Meat extract-dextrose broth; 28° to 37° C.; 24 to 48 hours
# Method: as §1
# Trichophyton mentagr. = assay: Antimycotic in vitro activity, serial dilution test (MIC), Trichophyton mentagrophytes; format: cell-based; details: Kimmig's test medium, 28° to 37° C., 96 hours
# Method: as §2, §3, §4
# [1] = test system: dermatophytes, Hyphomycetes and yeasts; assay: Antimycotic in vitro activity, serial dilution test, overall comparison with the prior art; format: cell-based; details: in words
# Method: as §2, §3
# Meat extract-dextrose broth.
# as §4
# Candida = assay: Antimycotic in vivo activity (oral) in mouse candidosis; parameters: species or system mouse (SPF-CF1); details: 10 to 100 mg/kg; for action in mouse candidosis, in words / Action (oral) in mouse candidosis: 6th day p.i.; for Action (oral) in mouse candidosis: one hour before and seven hours after infection; for surviving on the 6th day p.i.: untreated control about 5% survival
# Method: Mice of the SPF-CF1 type were infected intravenously with 1-2×10^6 exponentially growing Candida cells which are suspended in physiological saline solution. One hour before and seven hours after infection, the animals are treated orally in each case with 10 to 100 mg/kg of body weight of the preparation. Untreated animals died on the 3rd to 6th day post-infection. The survival rate on the 6th day post-infection was about 5% in untreated control animals.
# [2] = test system: Trichophyton mentagrophytes; assay: Antimicrobial in vivo activity (topical) in the experimental guinea-pig trichophytosis model; parameters: species or system guinea-pig (Pirbright white); details: 1 × daily, 0.1% strength solution, from 3rd day
# Method: White guinea-pigs of the Pirbright white strain are infected on the shaven, non-scarified back with a micro- and macroconidia suspension of Trichophyton mentagrophytes. The infected animals were treated topically 1 × daily with a 0.1% strength solution of the preparation according to the invention (in dimethyl sulphoxide: glycerol=1.4) beginning with the 3rd day. In untreated animals, the typical picture of a dermatophytosis with reddening, scaling and hair loss up to total integumental defect of the infection site developed within 12 days p.i.
Compound,MIC (Candida albicans) [µg/mL],MIC (Aspergillus fumigatus) [µg/mL],MIC (Torulopsis glabrata) [µg/mL],MIC (Trichophyton mentagr.) [µg/mL],antimycotic action compared with compounds (A) and (B) known from the prior art [1],"action in mouse candidosis, in words (Candida)",Action (oral) in mouse candidosis (Candida),surviving on the 6th day p.i. (Candida) [%],"action in guinea-pig trichophytosis, in words [2]"
"OC(Cn1cncn1)(Cn1cncn1)c1cccc(Cl)c1 [(A), reference compound]",> 64,> 64,> 64,32,–,–,–,–,–
"OC(Cn1cncn1)(Cn1cncn1)c1ccccc1 [(B), reference compound]",64,> 64,> 64,64,–,–,–,–,–
"OC(Cn1cncn1)(c1ccc(Cl)cc1)C1(n2cnc(Cl)n2)CC1 (stereo not shown) [Example 4, 1-(4-Chlorophenyl)-1-[1-(3-chloro-1,2,4-triazol-1-yl)-cyclopropyl]-2-(1,2,4-triazol-1-yl)-ethan-1-ol]",8,32,> 64,4,better antimycotic action than the compounds (A) and (B),good to very good action,+++++ (very good action = 90% surviving on the 6th day p.i.),> 80,–
"OC(Cn1cncn1)(c1ccccc1)C1(n2cnc(Cl)n2)CC1 (stereo not shown) [Example 6, 1-[1-(3-Chloro-1,2,4-triazol-1-yl)-cyclopropyl]-1-phenyl-2-(1,2,4-triazol-1-yl)-ethan-1-ol]",32,16,> 64,8,better antimycotic action than the compounds (A) and (B),good to very good action,+++++ (very good action = 90% surviving on the 6th day p.i.),> 80,good action

# Now from value to compound, other results behind:
MIC (Candida albicans) [µg/mL],MIC (Aspergillus fumigatus) [µg/mL],MIC (Torulopsis glabrata) [µg/mL],MIC (Trichophyton mentagr.) [µg/mL],Compound,antimycotic action compared with compounds (A) and (B) known from the prior art [1],"action in mouse candidosis, in words (Candida)",Action (oral) in mouse candidosis (Candida),surviving on the 6th day p.i. (Candida) [%],"action in guinea-pig trichophytosis, in words [2]"
32,32,> 64,8,"OC(Cn1cncn1)(c1ccc(F)cc1)C1(n2cnc(Cl)n2)CC1 (stereo not shown) [Example 7, 1-[1-(3-Chloro-1,2,4-triazol-1-yl)-cyclopropyl]-1-(4-fluorophenyl)-2-(1,2,4-triazol-1-yl)-ethan-1-ol]",better antimycotic action than the compounds (A) and (B),good to very good action,+++++ (very good action = 90% surviving on the 6th day p.i.),> 80,–
16,16,> 64,4,"Cc1ccc(C(O)(Cn2cncn2)C2(n3cnc(Cl)n3)CC2)cc1 (stereo not shown) [Example 8, 1-[1-(3-Chloro-1,2,4-triazol-1-yl)-cyclopropyl]-1-(4-methylphenyl)-2-(1,2,4-triazol-1-yl)-ethan-1-ol]",better antimycotic action than the compounds (A) and (B),–,–,–,–
32,16,16,4,"OC(Cn1cncn1)(c1ccc(-c2ccccc2)cc1)C1(n2cnc(Cl)n2)CC1 (stereo not shown) [Example 9, 1-(4-Biphenyl)-1-[1-(3-chloro-1,2,4-triazol-1-yl)-cyclopropyl]-2-(1,2,4-triazol-1-yl)-ethan-1-ol]",better antimycotic action than the compounds (A) and (B),–,–,–,–
32,16,> 64,16,"OC(Cn1cncn1)(c1ccc(F)cc1F)C1(n2cnc(Cl)n2)CC1 (stereo not shown) [Example 10, 1-[1-(3-Chloro-1,2,4-triazol-1-yl)-cyclopropyl]-1-(2,4-difluorophenyl)-2-(1,2,4-triazol-1-yl)-ethan-1-ol]",better antimycotic action than the compounds (A) and (B),good to very good action,+++++ (very good action = 90% surviving on the 6th day p.i.),> 80,good action
16,64,> 64,16,"OC(Cn1cncn1)(c1ccc(F)c(F)c1)C1(n2cnc(Cl)n2)CC1 (stereo not shown) [Example 11, 1-[1-(3-Chloro-1,2,4-triazol-1-yl)-cyclopropyl]-1-(3,4-difluorophenyl)-2-(1,2,4-triazol-1-yl)-ethan-1-ol]",better antimycotic action than the compounds (A) and (B),good to very good action,+++++ (very good action = 90% surviving on the 6th day p.i.),> 80,good action

# Source: patent US5126359A, “Substituted bisazoles and their use as medicaments” (Bayer Aktiengesellschaft, priority 1988, dated 1992)
